The values below come from ChEMBL document CHEMBL1201862, “PubChem BioAssay data set” (2004).

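Exposure lasted 48 hours, with cells grown in 96-well plates and compounds tested at five concentrations. Here, GI50 denotes the concentration required for 50% inhibition of growth.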 Calls of active or inactive are those of the source. No stated cut-off is given here; in the data, active = GI50 up to about 1.1 µM and inactive = higher. Some results are limits rather than exact numbers.

Some test systems named below: M19-MEL; DMS-273; RXF 631; XF498; SNB-78; DLD-1; LXFL 529; KM-20L2; HOP-18.
Assay in all cases: growth of human tumour cells (NCI), 48 h

Turning to `CCOC(=O)c1oc2c(OC)ccc3c2c1CCC3`, the GI50 with M19-MEL, in the assay on DMS-273, in the assay on RXF 631, in the assay on XF498, with SNB-78 and in the assay with DLD-1 was > 100 µM (inactive) in each case. Further, the GI50 in the assay on LXFL 529 and in the assay on KM-20L2 was > 100 µM (inactive) throughout.
Take `COC(=O)/C(=C/c1ccc(OC)cc1)C(C(=O)O)=C(C)C`: the GI50 with M19-MEL, in the assay with HOP-18, in the assay on DMS-273, in the assay on SNB-78, in the assay on DLD-1 and in the assay on LXFL 529 was > 100 µM (inactive) throughout. In the assay with KM-20L2, the GI50 is > 100 µM (inactive).
For `N#C/C(=C\c1ccc(O)c(O)c1)C(=O)NC1CCC(CC2CCC(NC(=O)/C(C#N)=C/c3ccc(O)c(O)c3)CC2)CC1` (stereo unspecified), the GI50 in the assay on M19-MEL was 0.443 µM (active); in the assay on HOP-18 it was 2.38 µM (inactive); in the assay on DMS-273, 0.222 µM (active); with XF498, 2.07 µM (inactive); with SNB-78 it was 1.59 µM (inactive); in the assay on DLD-1, 0.415 µM (active). The results for the GI50 in the assay on LXFL 529 and with KM-20L2 were 0.433 µM (active) and 1.78 µM (inactive), respectively.
In the case of `CCOC(=O)c1cccnc1C(OC(C)=O)OC(C)=O`, the GI50 in the assay with M19-MEL, in the assay with HOP-18, in the assay on DMS-273, in the assay on XF498, in the assay on SNB-78 and in the assay with DLD-1 was > 100 µM (inactive) in each case. For the same molecule, the GI50 in the assay with LXFL 529 and with KM-20L2 was > 100 µM (inactive) in each case.
In the case of `O=C1CCC(=O)C(C(=O)CCC(=O)Nc2cccc(Cl)c2)C1` (stereo unspecified), the GI50 in the assay on M19-MEL was > 100 µM (inactive); in the assay with HOP-18 it was > 100 µM (inactive); in the assay on XF498, > 100 µM (inactive); with DLD-1, > 100 µM (inactive); with LXFL 529, > 100 µM (inactive); with KM-20L2, 71 µM (inactive).
As for `COC(=O)CSc1nnc(-c2ccccc2)[nH]1`, the GI50 with M19-MEL, in the assay on HOP-18, in the assay on DMS-273, in the assay with SNB-78, in the assay on DLD-1 and with LXFL 529 was > 100 µM (inactive) each time. In addition, the GI50 in the assay on KM-20L2 was > 100 µM (inactive).
`COc1ccc(C2S/C(=C\c3ccccc3O)C(=O)N2NC(=O)Cc2ccccc2)cc1` (stereo unspecified): the GI50 with M19-MEL was > 100 µM (inactive); with HOP-18 it was > 100 µM (inactive); in the assay with DMS-273, > 100 µM (inactive); in the assay on DLD-1 it was > 100 µM (inactive); in the assay on LXFL 529, 93.1 µM (inactive).
Consider `NCCn1ccc(NC(c2ccccc2)(c2ccccc2)c2ccccc2)nc1=O`, for which the GI50 in the assay on M19-MEL is 20.9 µM (inactive); in the assay with HOP-18 it was > 100 µM (inactive); in the assay on XF498, 13.4 µM (inactive); with SNB-78 it was 20.6 µM (inactive); with DLD-1, 63.1 µM (inactive); in the assay on LXFL 529 it was 16.7 µM (inactive). Besides, in the assay on KM-20L2, the GI50 was 15.7 µM (inactive).
`COc1ccc(C2NC3=C(CCCC3)N2)cc1`: the GI50 is 41.6 µM (inactive) in the assay with M19-MEL; 54.2 µM (inactive) in the assay on DMS-273; 59 µM (inactive) with XF498; > 100 µM (inactive) with SNB-78; 88.1 µM (inactive) in the assay on DLD-1; 59.8 µM (inactive) with LXFL 529. In the assay on KM-20L2, the GI50 was 31.3 µM (inactive).
For `Cc1cc(NS(=O)(=O)c2ccc(Nc3c4ccccc4nc4c(C(=O)N5CCN(CCOS(C)(=O)=O)CC5)cccc34)cc2)no1`, the GI50 in the assay on M19-MEL, in the assay on DMS-273, in the assay with XF498, with SNB-78, with DLD-1 and in the assay with KM-20L2 was > 100 µM (inactive) throughout.
`COC(=O)/C(=N/Nc1cccc(Cl)c1)C(C(=O)C(=O)Nc1cccc(Cl)c1C)c1nc2ccccc2nc1C` (stereo unspecified): the GI50 in the assay with M19-MEL was 54 µM (inactive); in the assay with DLD-1 it was 34.5 µM (inactive); with KM-20L2 it was 32 µM (inactive).
Turning to `CC[C@]12C=CCN3CCC4(c5cc([C@@]6(C(=O)OC)CC7CN(CCc8c6[nH]c6ccccc86)CC6CCCCC67)c(OC)cc5N(C)C4[C@](O)(C(=O)OC)C1OC(C)=O)[C@@H]32` (stereo partly specified), the GI50 is < 0.01 µM (active) with M19-MEL; < 0.01 µM (active) in the assay with DMS-273; 0.0469 µM (active) in the assay on XF498; < 0.01 µM (active) in the assay with SNB-78; 0.0269 µM (active) in the assay on DLD-1; < 0.01 µM (active) in the assay with LXFL 529. Moreover, the GI50 in the assay with KM-20L2 was < 0.01 µM (active).
Regarding `O/N=C\C(=N/O)Nc1ccc(Cc2ccc(NC(/C=N\O)=N/O)cc2)cc1`, the GI50 in the assay with M19-MEL is 47 µM (inactive); in the assay with HOP-18 it was 37.9 µM (inactive); with DMS-273, 43.9 µM (inactive); in the assay on XF498, 71.3 µM (inactive); with SNB-78, > 100 µM (inactive); in the assay on DLD-1, 23.9 µM (inactive). Further, the GI50 was 39.4 µM (inactive) in the assay with LXFL 529 and 44.3 µM (inactive) with KM-20L2.
Regarding `O=C(CCc1cc(-c2ccccc2)nc(S)n1)N(Cc1ccccc1)Cc1ccccc1`, the GI50 in the assay with M19-MEL, in the assay with HOP-18, with DMS-273, in the assay on XF498, in the assay with SNB-78 and in the assay with DLD-1 was > 100 µM (inactive) throughout. Also, the GI50 in the assay on LXFL 529 and with KM-20L2 was > 100 µM (inactive) throughout.
`NC(C(=O)O)c1ccc(C(=O)O)cc1` (stereo unspecified): the GI50 in the assay on M19-MEL, with RXF 631, with XF498, with SNB-78, in the assay on DLD-1 and in the assay on LXFL 529 was > 100 µM (inactive) in each case. Further, in the assay with KM-20L2, the GI50 is > 100 µM (inactive).
Turning to `COC(=O)C(CC(=O)Nc1ccc(Cl)c(Cl)c1)C(=O)C(=O)NC1C2CC3CC(C2)CC1C3` (stereo unspecified), the GI50 was > 100 µM (inactive) with M19-MEL; 78.3 µM (inactive) in the assay with HOP-18; > 100 µM (inactive) in the assay with DMS-273; > 100 µM (inactive) with SNB-78; > 100 µM (inactive) with LXFL 529; > 100 µM (inactive) in the assay with KM-20L2.
Turning to `C=CC(=O)C#CC#CC/C=C\CCCCCCC`, the GI50 with M19-MEL was > 20.6 µM (inactive); with DMS-273, > 20.6 µM (inactive); in the assay on SNB-78, 10.3 µM (inactive); with DLD-1, 8.79 µM (inactive); with LXFL 529, 7.74 µM (inactive); in the assay with KM-20L2, > 20.6 µM (inactive).
Regarding `COc1ccc(/C=N/NC(=O)CSc2nc(-c3ccccc3)c(-c3ccccc3)[nH]2)cc1OC`, the GI50 in the assay on M19-MEL was 18.4 µM (inactive); in the assay on DMS-273 it was 20.4 µM (inactive); with DLD-1 it was 42.6 µM (inactive); with LXFL 529, 22.1 µM (inactive); in the assay on KM-20L2, 19.1 µM (inactive).
`Cc1c(/C=N/N=C/c2[nH]c(C(=O)OC(C)(C)C)c(C)c2C)[nH]c(C(=O)OC(C)(C)C)c1C`: the GI50 with M19-MEL, in the assay on HOP-18, in the assay with DMS-273, in the assay on SNB-78, in the assay with DLD-1 and in the assay on LXFL 529 was > 100 µM (inactive) each time. The GI50 with KM-20L2 was > 100 µM (inactive).
